Results on one compound are retold here after publication PMC3884839, “Pharmacokinetics and pharmacodynamics utilizing unbound target tissue exposure as part of a disposition-based rationale for lead optimization of benzoxaboroles in the treatment of Stage 2 Human African Trypanosomiasis” (Parasitology, 2013).

Structures are written as SMILES. Converted amounts (≈) assume the structure as drawn.

One may read the IC50 as the point on the concentration scale where inhibition reaches its midpoint. The low end stands for greater potency in that assay, the high end for weaker potency in that assay.

Series [1] relates to T. b. brucei (TREU 667). In words: Murine model of Stage 2 (CNS) HAT. In kind it is in vivo, mouse. As for the experimental part:
The efficacy of benzoxaboroles was evaluated in a murine model of Stage 2 (CNS) HAT (Nare et al. [2010]; Jacobs et al. [2011]). In summary, mice (n = 10 per group) were infected by bolus i.p. injection of 1×10^4 T. b. brucei (TREU 667) parasites. A single bolus i.p. dose (10 mg kg^-1) of berenil (Sigma-Aldrich, St. Louis, MO) was administered on day 4 as a positive treatment control for haemolymphatic-stage infection. Infection of the remaining animals proceeded for 21 days to establish a CNS infection before treatment with either a single dose of berenil (as above) or test compounds by the oral route either once or twice daily over 7 days at the doses indicated below. Animals were checked at least weekly for parasitaemia and were immediately removed from cages and euthanized upon recrudescence. Animals were considered cured if they were […] for at least 180 days after treatment.

The test system of series [2] is L929 mammalian cell line. Description: L929 mammalian cell cytotoxicity / selectivity. Format: cell-based.
The nature of series [3]: Binding to human plasma protein by rapid equilibrium dialysis. Format: in vitro ADME. The note with it: 1 μg mL^−1. As for the experimental part: Binding to plasma proteins, brain homogenates or proteins in serum-fortified HMI-9 media was determined by rapid equilibrium dialysis (RED) (Pierce, Rockford, IL) using a 48-well plate-based format according to the manufacturer's instructions. Briefly, test compound was added to fresh plasma (Bioreclamation, Liverpool, NY) at the required concentrations, freshly prepared brain homogenate or media. Duplicate aliquots of each sample were transferred into the sample chambers of the RED devices, and dialysis buffer (BupH PBS) was added to the buffer chambers. The plates were sealed and incubated at 37 °C for 4 h. After dialysis, samples collected from the buffer and tissue chambers were treated with ice-cold methanol (3 volumes for plasma or HMI-9 media, 4 volumes for brain) to precipitate proteins. The treated samples were centrifuged for 10 min at approximately 3000 g at 15 °C. The supernatants were assayed for test compound by LC-MSMS. Calibration standards and quality control samples were prepared in matched matrix and assayed with samples. Values for unbound and bound fractions and mass balance were calculated. Concordance of binding for each batch of plasma was confirmed by assay of warfarin, imipramine and carbamezapine. Acceptance criterion for mass balance was 70–120%.

Series [4] has as its system T. b. brucei. In words: In vitro reversibility of trypanocidal effects (transient exposure). Format: cell-based, Trypanosoma brucei brucei. The protocol: The time and concentration dependency for oxaborole-mediated killing of T. b. brucei, under constant (time-kill) and transient (reversibility) drug-pressure, was determined as described previously (Nare et al. 2010).
Reversibility was assessed as the ability T. b. brucei parasites to recover from transient exposure (0–24 h) to test benzoxaboroles (0·02–10 μg mL^−1). Trypanosomes were seeded in clear 96-well ‘V’-bottom plates at a density of 1×10^5 parasites per well; one plate was prepared for each time-point. After the designated incubation time, each plate was removed from the incubator and centrifuged at 4400 g for 5 min to sediment parasites. The supernatant containing the test compound was aspirated and three washing cycles were performed where 100 μl of warmed HMI-9 media was added to each well and then aspirated. […] Thus, each concentration and time-point was evaluated in triplicate. Each plate was incubated for a further 72 h, whereupon, trypanocidal activity was determined using resazurin (Sigma-Aldrich, St. Louis, MO) where 20 μl of a 25 mg/100 mL stock in PBS was added, incubated for an additional 4–6 h and fluorescence measured using the EnVision plate reader (excitation wavelength, 530 nm and emission wavelength, 590 nm).

Series [5] is described as follows: Unbound brain exposure (AUC0-24) in uninfected mice after once daily oral SCYX-7158. Format: in vivo, mouse. The note with it: 12·5 mg kg^−1 once daily. As for the experimental part:
The CNS disposition and pharmacokinetics of the benzoxaboroles were evaluated in infected and uninfected mice following oral administration. In vivo phases of single-dose rodent PK studies were performed at Vivisource (Waltham, MA) following Institutional Animal Care and Use Committee (IACUC) review in an Association for Assessment and Accreditation of Laboratory Animal Care International (AAALAC)-approved facility. Studies in Trypanosoma brucei brucei (TREU 667 strain) infected mice, or uninfected satellite animals, were performed after IACUC review at Pace University (NewYork, NY).
Male CD-1 or female Swiss Webster mice (approximately 25 g) were administered test compounds by oral gavage either once (QD) or twice per day (Q12 h) with doses ranging between 6 and 100 mg kg^−1 as described below. All compounds were formulated as an in situ sodium salt in 2% (v/v) ethanol, 5% (m/v) dextrose, to yield typically clear colourless solutions that were administered at 4 mL kg^−1. Blood samples for pharmacokinetic studies were collected into polypropylene tubes containing K2EDTA anticoagulant and stored on wet ice until centrifuged and processed to plasma. Plasma was stored at −80 °C. Blood samples from mice were collected via cardiac puncture under terminal anaesthesia. Rodents were euthanized in a CO2 chamber before collection of terminal blood or tissue samples. Brain tissues were blotted dry and stored at approximately −80 °C.
Pharmacokinetic studies were performed in CD-1 mice to establish AUC0–24 following single and 7×once daily oral doses of 6·25, 12·5, 25, 50 and 100 mg kg^−1 SCYX-7158 (Jacobs et al. [2011]). […] Values for unbound AUC0–24 in brain were calculated using the single and steady-state exposure data (non-parametric super-positioning indicated steady-state was mostly attained on day 2 so day 7 data were employed for days 2–7 rather than modelled data for days 2–6) and compared to the target unbound AUC from the in vitro reversibility studies (Fig. 9).

Where [6] appears, read: 6·25 mg kg^−1 day^−1 oral for 7 days.

For the compound `CC1(C)OB(O)c2cc(NC(=O)c3ccc(F)cc3C(F)(F)F)ccc21` [SCYX-7158], the cure outcome in series [1] (50 mg kg^−1, single oral dose) was “No animals were cured”. The same compound came in with a cure rate in series [1] (50 mg kg^−1 oral, ⩾3 days of dosing) of 100%. In series [1] (setting [6]), the “day of recrudescence of parasitaemia after infection” value was ~35 days and the treatment outcome is recorded as “cleared of haemolymphatic T. b. brucei but demonstrated recrudescence of parasitaemia”. The cure rate in series [1] (12·5 mg kg^−1 oral once daily for 7 days) is 80%. The cure outcome in series [1] (⩾25 mg kg^−1 day^−1 oral for 7 days) was “complete cures”. This compound also came in with an IC50 in series [2] (Mus musculus, L929 mammalian cell line, cytotoxicity) of 50 mg/L (≈ 136 µM). In series [2] (parasite vs L929), the Selectivity result was “⩾138”. Also, in series [3], the Mass balance is 110%. Also, the “reduction in survival relative to untreated control parasites” value in series [4] (Cu 0·123 μg mL^−1 (Ct 0·313 μg mL^−1), 24 h incubation) was determined as 24%. The “exposure time tolerated without impact on survival” value in series [4] (Cu 1·11 μg mL^−1 (Ct 1·25 μg mL)) is 8 h. Besides, in series [5], the “time unbound concentration in brain tissue exceeded IC50u on each day” value is 10 h, the “time unbound concentration in brain tissue exceeded MICu on each day” value was determined as 4 h and the “unbound AUC0–24 as percentage of the target MICu AUC” value is “approximately 50%”.
